Experimental findings from patent US12377094B2, “Therapeutic compositions and methods for treating checkpoint inhibitor-resistant tumors using plinabulin-based combination therapies” (BeyondSpring Pharmaceuticals, Inc., priority 2021, dated 2025) are described below.

SMILES strings stand for the structures.

The nature of this series: Dose-escalation Phase I study of nivolumab, ipilimumab and plinabulin: safety (DLT, RP2D, treatment-related AEs, irAEs). It is filed as in vivo, human. The note with it: with nivolumab 1 mg/kg and ipilimumab 3 mg/kg, IV day 1 of 21 day cycle; dose-level 2.

Excerpt: In a dose-escalation Phase I study, patients with recurrent extensive-stage small cell lung cancer (SCLC) who had progressed on prior platinum-based chemotherapy were enrolled using a 3+3 design. The primary objective was to determine dose-limiting toxicities (DLT's) and recommended Phase 2 dose (RP2D). Patients were evaluable for DLT if they received at least two cycles of therapy; DLT period was defined as the first six weeks. Secondary endpoints were ORR, PFS and frequency of irAEs. Correlative analysis included inflammatory biomarkers: hsCRP, ESR, SAA and haptoglobin.
Patients received nivolumab (1 mg/kg), ipilimumab (3 mg/kg) and plinabulin (as per dose escalation schema) IV on day 1 of each 21 day cycle. After completion of 4 cycles, patients continued therapy with nivolumab (240 mg) and plinabulin every 2 weeks till progression or intolerable toxicity. Patients were evaluable for DLT if they received at least 2 cycles of therapy; DLT period was defined as the first 6 weeks from C1D1.

In the case of `CC(C)(C)c1[nH]cnc1/C=c1\[nH]c(=O)/c(=C/c2ccccc2)[nH]c1=O` [plinabulin, (3Z,6Z)-3-Benzylidene-6-{[5-(2-methyl-2-propanyl)-1H-imidazol-4-yl]methylene}-2,5-piperazinedione], the “recommended Phase 2 dose (RP2D) of plinabulin” value is 30 mg/m2.
